Target: CDK2 (UniProt P24941)
Experiment: Enzyme Assay

N[C@@H]1CCCC[C@H]1NC(=O)c1ccc(Nc2cc(-c3ccccc3OCc3ccccc3)ncn2)cc1.N[C@H]1CCCC[C@@H]1NC(=O)c1ccc(Nc2cc(-c3ccccc3OCc3ccccc3)ncn2)cc1 showed an IC50 of 0.001 to 1 µM.

For CC(C)(C)C(=O)Nc1ccc(Nc2cc(-c3ccccc3F)ncn2)cc1, the IC50 was 10 to 250 µM.

COC(=O)CN(c1ccc(Nc2cc(-c3ccc(O)cc3)ncn2)cc1)S(=O)(=O)c1ccc(C)cc1 showed an IC50 of 0.001 to 1 µM.

Compound O=C(Nc1ccc(Nc2cc(-c3ccccc3OCc3ccccc3)ncn2)cc1)[C@@H]1CCCCN1 has an IC50 of 0.001 to 1 µM.

With Cc1ccc(Nc2cc(-c3cccc(C#N)c3)ncn2)cc1NS(C)(=O)=O the IC50 was 1 to 10 µM.

In the case of Nc1cccc(-c2cc(Nc3cccc(S(N)(=O)=O)c3)ncn2)c1, the IC50 is reported as 1 to 10 µM.

With Cc1ccc(S(=O)(=O)Nc2ccc(Nc3cc(-c4cccc(/C=C/C(=O)O)c4)ncn3)cc2)cc1 the IC50 was 10 to 250 µM.

For COc1ccccc1-c1cc(Nc2ccc(C(=O)N[C@@H]3CCCC[C@H]3O)cc2)ncn1.COc1ccccc1-c1cc(Nc2ccc(C(=O)N[C@H]3CCCC[C@@H]3O)cc2)ncn1, the IC50 was 1 to 10 µM.

COc1ccccc1-c1cc(Nc2ccc(NC(=O)c3ccncc3)cc2)ncn1 gave an IC50 of 10 to 250 µM.

With CC[C@H](C)[C@H](N)C(=O)Nc1ccc(Nc2cc(-c3ccccc3OC)ncn2)cc1 the IC50 was 1 to 10 µM.

Compound CCCN(c1ccc(Nc2cc(-c3ccccc3OC)ncn2)cc1)S(=O)(=O)c1ccc(C)cc1 has an IC50 of 10 to 250 µM.

For COc1ccccc1-c1cc(Nc2ccc(NC(=O)c3ccc(N)cc3)cc2)nc(N)n1, the IC50 was 10 to 250 µM.

In the case of COc1ccccc1-c1cc(Nc2ccc(C(=O)Nc3ccc(N4CCOCC4)cc3)cc2)ncn1, the IC50 is reported as 1 to 10 µM.

For COc1ccccc1-c1cc(Nc2ccc(NC(=O)NC(C)(C)C)cc2)ncn1, the IC50 was 1 to 10 µM.

Nc1ccc(C(=O)Nc2ccc(Nc3cc(/C=C/c4ccccc4)ncn3)cc2)cc1 was tested, and the IC50 was 10 to 250 µM.

COc1ccccc1-c1cc(Nc2ccc(-c3nc4ccccc4[nH]3)cc2)ncn1 gave an IC50 of 0.001 to 1 µM.

In the case of COc1ccccc1-c1cc(Nc2ccc(C(=O)Nc3ccc(C(C)C)cc3)cc2)ncn1, the IC50 is reported as 10 to 250 µM.

COc1ccccc1-c1cc(Nc2ccc(NC(=O)C3CC4CCC3C4)cc2)ncn1 (stereo unspecified) gave an IC50 of 10 to 250 µM.

Work on Cc1ccc(Nc2cc(-c3cncnc3)ncn2)cc1NS(C)(=O)=O yielded an IC50 of 1 to 10 µM.

C=Cc1ccccc1-c1cc(Nc2ccc(NC(=O)C(C)(C)C)cc2)ncn1 gave an IC50 of 10 to 250 µM.

COc1ccccc1-c1cc(Nc2ccc(NC(=O)C(C)(C)C)cc2)ncn1 showed an IC50 of 1 to 10 µM.

For COc1ccccc1-c1cc(Nc2ccc(NC(=O)[C@@H](N)C(C)C)cc2)ncn1, the IC50 was 1 to 10 µM.

Oc1ccccc1-c1cc(NCCc2ccncc2)ncn1 was tested, and the IC50 was 10 to 250 µM.

Cc1ccc(S(=O)(=O)Nc2ccc(Nc3cc(-c4ccc(O)cc4)ncn3)cc2)cc1 gave an IC50 of 0.001 to 1 µM.

COc1ccccc1-c1cc(Nc2ccc(NC(=O)CC(C)(C)C)cc2)ncn1 showed an IC50 of 1 to 10 µM.

In the case of Nc1ccc(C(=O)Nc2ccc(Nc3cc(NCCO)ncn3)cc2)cc1, the IC50 is reported as 10 to 250 µM.

COc1ccccc1-c1cc(Nc2ccc(NC(=O)C3(NC(=O)OC(C)(C)C)CCCC3)cc2)ncn1 was tested, and the IC50 was 10 to 250 µM.

COc1ccccc1-c1cc(N(C)c2ccc(NS(=O)(=O)c3ccc(C)cc3)cc2)ncn1 showed an IC50 of 1 to 10 µM.

COc1ccccc1-c1cc(Nc2ccc(NC(=O)CC3CCCCN3C(=O)OC(C)(C)C)cc2)ncn1 (stereo unspecified) gave an IC50 of 1 to 10 µM.

COc1ncccc1-c1cc(Nc2ccc(C)c(NS(C)(=O)=O)c2)ncn1 showed an IC50 of 1 to 10 µM.

COc1ccccc1-c1cc(Nc2ccc(NC(=O)C(c3ccccc3)N(C)C)cc2)ncn1 (stereo unspecified) gave an IC50 of 1 to 10 µM.

In the case of COc1ccccc1-c1cc(Nc2ccc(NS(=O)(=O)c3ccc(C)cc3)cc2)ncn1, the IC50 is reported as 0.001 to 1 µM.

With COc1ccccc1-c1cc(Nc2cccc(S(C)(=O)=O)c2)ncn1 the IC50 was 0.001 to 1 µM.

In the case of COc1ccccc1-c1cc(Nc2ccc(NC(=O)C3CCCCC3)cc2)ncn1, the IC50 is reported as 10 to 250 µM.

COc1ccccc1-c1cc(Nc2ccc(NC(=N)N)cc2)ncn1 was tested, and the IC50 was 1 to 10 µM.

Work on Cc1ccc(Nc2cc(-c3ccccc3OC(C)C)ncn2)cc1NS(C)(=O)=O yielded an IC50 of 0.001 to 1 µM.

Work on CN1CCC(Nc2cc(Nc3ccc(NC(=O)C(C)(C)C)cc3)ncn2)CC1 yielded an IC50 of 10 to 250 µM.

In the case of CC(C)(C)C(=O)Nc1ccc(Nc2cc(Cl)ncn2)cc1, the IC50 is reported as 10 to 250 µM.

Compound CCc1ccccc1-c1cc(Nc2ccc(NC(=O)C(C)(C)C)cc2)ncn1 has an IC50 of 1 to 10 µM.

With Cc1ccc(Nc2cc(-c3cccc(C=O)c3)ncn2)cc1NS(C)(=O)=O the IC50 was 1 to 10 µM.

Compound COc1ccccc1-c1cc(Nc2ccc(N)cc2C)ncn1 has an IC50 of 1 to 10 µM.

COc1ccccc1-c1cc(Nc2ccc(NC(=O)c3ccc4ccccc4n3)cc2)ncn1 was tested, and the IC50 was 10 to 250 µM.

COc1ccccc1-c1cc(Nc2ccc(NC(=O)C(C)(C)C)cc2C)ncn1 was tested, and the IC50 was 10 to 250 µM.

In the case of Nc1ccc(C(=O)Nc2ccc(Nc3cc(NCC4CCCCC4)ncn3)cc2)cc1, the IC50 is reported as 10 to 250 µM.

In the case of COc1ccccc1-c1cc(Nc2cccc(NC(=O)C(C)(C)C)c2)ncn1, the IC50 is reported as 1 to 10 µM.

In the case of COc1ccc(-c2cc(Nc3ccc(NC(=O)[C@@H]4CCCCN4)cc3)ncn2)c(OC)c1, the IC50 is reported as 1 to 10 µM.

COc1ccccc1-c1cc(Nc2cccc(N)c2)ncn1 showed an IC50 of 0.001 to 1 µM.

With CN1CCN(c2cc(Nc3ccc(NC(=O)C(C)(C)C)cc3)ncn2)CC1 the IC50 was 10 to 250 µM.

Work on CSc1ccccc1-c1cc(Nc2ccc(NC(=O)[C@@H]3CCCCN3)cc2)ncn1 yielded an IC50 of 1 to 10 µM.

With COc1ccccc1-c1cc(Nc2cccc(S(N)(=O)=O)c2)ncn1 the IC50 was 0.001 to 1 µM.

COc1ccccc1-c1cc(Nc2ccc(NC(=O)c3nc4ccccc4s3)cc2)ncn1 gave an IC50 of 10 to 250 µM.

Work on CC(C)(C)C(=O)Nc1ccc(Nc2cc(-c3cccnc3)ncn2)cc1 yielded an IC50 of 10 to 250 µM.

Work on COc1ccccc1-c1cc(Nc2ccc(NC(=O)c3c[nH]c4ccccc34)cc2)ncn1 yielded an IC50 of 1 to 10 µM.

Compound COc1ccc(C(C)C)cc1-c1cc(Nc2ccc(NC(=O)c3ccc(N)cc3)cc2)ncn1 has an IC50 of 10 to 250 µM.

CC(C)Oc1ccccc1-c1cc(NCCc2ccncc2)ncn1 was tested, and the IC50 was 1 to 10 µM.

Work on CCCCNS(=O)(=O)c1cccc(Nc2cc(-c3ccccc3OC)ncn2)c1 yielded an IC50 of 1 to 10 µM.

Compound COc1ccc(-c2cc(Nc3ccc(NC(=O)c4ccc(N)cc4)cc3)ncn2)cc1 has an IC50 of 1 to 10 µM.

CS(=O)(=O)Nc1cccc(-c2cc(Nc3ccc(C(=O)N[C@@H]4CCCC[C@H]4N)cc3)ncn2)c1.CS(=O)(=O)Nc1cccc(-c2cc(Nc3ccc(C(=O)N[C@H]4CCCC[C@@H]4N)cc3)ncn2)c1 was tested, and the IC50 was 1 to 10 µM.

For CC(C)(C)C(=O)Nc1ccc(Nc2cc(-c3ccccc3C(F)(F)F)ncn2)cc1, the IC50 was 10 to 250 µM.

In the case of CC(C)(C)C(=O)Nc1ccc(Nc2cc(-c3ccccc3OCc3ccccc3)ncn2)cc1, the IC50 is reported as 1 to 10 µM.

Compound COc1ccccc1-c1cc(Nc2ccc(NC(=O)C(c3ccccc3)C(C)C)cc2)ncn1 (stereo unspecified) has an IC50 of 10 to 250 µM.

For COc1ccc(-c2cc(Nc3ccc(C)c(NS(C)(=O)=O)c3)ncn2)cc1, the IC50 was 0.001 to 1 µM.

For c1ccc(COc2ccccc2-c2cc(NCCc3ccncc3)ncn2)cc1, the IC50 was 1 to 10 µM.

COC(=O)CN(c1ccc(Nc2cc(-c3ccccc3OC)ncn2)cc1)S(=O)(=O)c1ccc(C)cc1 gave an IC50 of 1 to 10 µM.

With COc1ccccc1-c1cc(Nc2ccc(NS(=O)(=O)c3ccccc3)cc2)ncn1 the IC50 was 0.001 to 1 µM.

CCCS(=O)(=O)Nc1ccc(Nc2cc(-c3ccccc3OC)ncn2)cc1 gave an IC50 of 0.001 to 1 µM.

CS(=O)(=O)Nc1cccc(Nc2cc(-c3cccc(N)c3)ncn2)c1 gave an IC50 of 1 to 10 µM.

Compound Nc1cccc(-c2cc(Nc3ccc(S(N)(=O)=O)cc3)ncn2)c1 has an IC50 of 0.001 to 1 µM.

In the case of CS(=O)(=O)Nc1cc(Nc2cc(-c3cccc(N)c3)ncn2)ccc1OCc1ccccc1, the IC50 is reported as 1 to 10 µM.

For COc1ccccc1-c1cc(Nc2ccc(C(=O)Nc3ccc(O)cc3)cc2)ncn1, the IC50 was 1 to 10 µM.

Work on CC(=O)Nc1cccc(-c2cc(Nc3ccc(C)c(NS(C)(=O)=O)c3)ncn2)c1 yielded an IC50 of 1 to 10 µM.

Nc1cccc(-c2cc(NCCc3ccncc3)ncn2)c1 was tested, and the IC50 was 1 to 10 µM.

For COc1ccc(-c2cc(Nc3ccc(C(=O)N[C@@H]4CCCC[C@H]4N)cc3)ncn2)cc1.COc1ccc(-c2cc(Nc3ccc(C(=O)N[C@H]4CCCC[C@@H]4N)cc3)ncn2)cc1, the IC50 was 1 to 10 µM.

COC(=O)/C=C/c1cccc(-c2cc(Nc3ccc(C)c(NS(C)(=O)=O)c3)ncn2)c1 gave an IC50 of 1 to 10 µM.

Work on Cc1ccc(Nc2cc(-c3cccc(NS(C)(=O)=O)c3)ncn2)cc1CS(N)(=O)=O yielded an IC50 of 0.001 to 1 µM.

For COc1ccccc1-c1cc(NCCc2ccncc2)ncn1, the IC50 was 10 to 250 µM.

COc1cccc(-c2cc(Nc3ccc(NC(=O)[C@@H]4CCCCN4)cc3)ncn2)c1OC gave an IC50 of 10 to 250 µM.

Nc1ccc(C(=O)Nc2ccc(Nc3cc(-c4ccccc4O)ncn3)cc2)cc1 showed an IC50 of 10 to 250 µM.

Cc1ccc(Nc2cc(-c3cccc(O)c3)ncn2)cc1NS(C)(=O)=O showed an IC50 of 0.001 to 1 µM.

Nc1ccc(C(=O)Nc2ccc(Nc3cc(-c4cccs4)ncn3)cc2)cc1 gave an IC50 of 10 to 250 µM.

COc1ccccc1-c1cc(Nc2ccc(NC(=O)c3ccc4c(c3)OCO4)cc2)ncn1 was tested, and the IC50 was 1 to 10 µM.

With COc1ccccc1-c1cc(Nc2ccc(NC(=O)c3ccc(N)cc3)cc2)ncn1 the IC50 was 1 to 10 µM.

Cc1ccc(Nc2cc(-c3ccccc3)ncn2)cc1NS(C)(=O)=O gave an IC50 of 0.001 to 1 µM.

For Cc1ccc(S(=O)(=O)Nc2ccc(Nc3cc(-c4ccc(CCC(=O)O)cc4)ncn3)cc2)cc1, the IC50 was 10 to 250 µM.

Compound COc1ccccc1-c1cc(Nc2ccc(NC(=O)[C@@H]3CCN3)cc2)ncn1 has an IC50 of 1 to 10 µM.

Work on Nc1ccc(C(=O)Nc2ccc(Nc3cc(-c4ccccc4)ncn3)cc2)cc1 yielded an IC50 of 10 to 250 µM.

COc1ccccc1-c1cc(Nc2ccc(NS(=O)(=O)c3ccc(-c4ccccc4)cc3)cc2)ncn1 gave an IC50 of 1 to 10 µM.

In the case of Cc1ccc(Nc2cc(-c3cccc(N(C)C)c3)ncn2)cc1NS(C)(=O)=O, the IC50 is reported as 1 to 10 µM.

COc1ccccc1-c1cc(Nc2ccc(NC(=O)c3ccccc3N)cc2)ncn1 gave an IC50 of 1 to 10 µM.

COc1ccccc1-c1cc(Nc2ccc(C(=O)Nc3ccccc3)cc2)ncn1 gave an IC50 of 10 to 250 µM.

COc1ccccc1-c1cc(Nc2cccc(C(N)=O)c2)ncn1 gave an IC50 of 0.001 to 1 µM.

CC(C)(C)C(=O)Nc1ccc(Nc2cc(NCCN)ncn2)cc1 showed an IC50 of 10 to 250 µM.

CC(C)(C)C(=O)Nc1ccc(Nc2cc(NCCCO)ncn2)cc1 gave an IC50 of 10 to 250 µM.

COc1ccccc1-c1cc(Nc2ccc(NC(=O)C(N)c3ccc4ccccc4c3)cc2)ncn1 (stereo unspecified) showed an IC50 of 1 to 10 µM.

Work on COc1ccccc1-c1cc(Nc2ccc(C(=O)NC3CCCCC3)cc2)ncn1 yielded an IC50 of 1 to 10 µM.

For COc1cccc(-c2cc(Nc3ccc(NC(=O)c4ccc(N)cc4)cc3)ncn2)c1OC, the IC50 was 1 to 10 µM.

Work on COc1ccccc1-c1cc(Nc2ccc(-c3nc4ccccc4o3)cc2)ncn1 yielded an IC50 of 10 to 250 µM.

Compound COc1ccccc1-c1ncnc(Nc2ccc(N)cc2)c1C has an IC50 of 10 to 250 µM.

For COc1ccccc1-c1cc(Nc2ccc(NC(=O)Nc3ccc4c(c3)OCO4)cc2)ncn1, the IC50 was 10 to 250 µM.

For COc1ccccc1-c1cc(Nc2ccc(NC(=O)CN(C)C)cc2)ncn1, the IC50 was 1 to 10 µM.

Work on COc1ccc(-c2cc(Nc3ccc(NC(=O)c4ccc(N)cc4)cc3)ncn2)c(OC)c1 yielded an IC50 of 0.001 to 1 µM.

From the Kinase Knowledgebase extract (Sharma et al. 2016)
